The record followed here is patent publication US20250161228A1, “COMPOSITIONS COMPRISING ULTRAFINE BUBBLES AND METHODS OF USING THEREOF IN A METHOD OF PRODUCING AND DELIVERING ACTIVE PHARMACEUTICAL INGREDIENTS AND OTHER DISSOLVED SOLUTES” (Hydrosome IP, LLC, priority 2023, published 2025).

For this assay, the system named is Human embryonic kidney (HEK) cells. The assay is described as follows: Intracellular zinc uptake study, colorimetric assay at 540 nm. The assay is classed as cell-based. On the procedure: Human embryonic kidney (HEK) cells were treated with a composition prepared in accordance with the disclosure, the composition comprising zinc in a Cellular Hydration Water Advanced Zinc Formulation (Zinc Formulation) to test intracellular zinc uptake in vitro. The composition comprised 93 micromolar zinc (II) ions. The HEK cells were treated with compositions comprising 10%, 50%, or 100% Zinc Formulation. Zinc content was measured at 15, 30, 45, and 60 minutes using a colorimetric assay measuring light absorbance at 540 nm. The changes in intracellular zinc content were compared to a control group of HEK cells treated with a ZnSO4 solution.

For `O=S(=O)([O-])[O-].[Zn+2]` [ZnSO4], the “increase in intracellular zinc content” value (10% composition or its ZnSO4 control, 30 minutes) was found to be 20.4%; the “increase in intracellular zinc content” value (50% composition or its ZnSO4 control, 15 minutes) is on record as 42%; the “increase in intracellular zinc content” value (50% composition or its ZnSO4 control, 30 minutes) was determined as 29.6%; the “increase in intracellular zinc content” value (50% composition or its ZnSO4 control, 60 minutes) is on record as 42.2%.
